Reference: the supplement of paper PMC10307832

Experiments:
Assay in all cases: relative viability (nuclei count vs DMSO), 5 days (fraction); higher = more cells survive
[1] = compound: CNC(=O)c1ccccc1Sc1ccc2c(/C=C/c3ccccn3)n[nH]c2c1 [Axitinib] + CC(=O)Nc1cccc(-n2c(=O)n(C3CC3)c(=O)c3c(Nc4ccc(I)cc4F)n(C)c(=O)c(C)c32)c1 [Trametinib] (partner 0.02 µM)
Procedure, shortened: (§1)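 Dosing by pin tool came one day after lung cancer cell lines were seeded in 1536-well plates, using either one drug or a fixed anchor-drug dose plus five library-drug doses (not always all listed) in √10 steps. After 5 days, nuclei were counted on 4× images. Relative viability is treated-well nuclei count divided by vehicle-well nuclei count, and values are medians of duplicate plates.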

[2] = compound: CC1=CC=C(C=C1)C(=O)CN2C3=C(CCCC3)SC2=N [Pifithrin_alpha] + N=C(N)NC(=N)NCCc1ccccc1 [Phenformin] (partner 250 µM)
Procedure, shortened: as §1

[3] = compound: CC1=CC=C(C=C1)C(=O)CN2C3=C(CCCC3)SC2=N [Pifithrin_alpha] + CC1(C)CCC(c2ccc(Cl)cc2)=C(CN2CCN(c3ccc(C(=O)NS(=O)(=O)c4ccc(N[C@H](CCN5CCOCC5)CSc5ccccc5)c(S(=O)(=O)C(F)(F)F)c4)cc3)CC2)C1 [Navitoclax] (partner 0.5 µM)
Procedure, shortened: as §1

[4] = compound: CNC(=O)c1ccccc1Sc1ccc2c(/C=C/c3ccccn3)n[nH]c2c1 [Axitinib] + CCNC(=O)c1noc(-c2cc(C(C)C)c(O)cc2O)c1-c1ccc(CN2CCOCC2)cc1 [Luminespib] (partner 0.01 µM)
Procedure, shortened: as §1

Cell Line	relative viability ([1]; first compound 0.005 µM)	relative viability ([1]; first compound 0.01581 µM)	relative viability ([1]; first compound 0.05 µM)	relative viability ([1]; first compound 0.1581 µM)	relative viability ([1]; first compound 0.5 µM)	relative viability ([2]; first compound 3.162 µM)	relative viability ([2]; first compound 10 µM)	relative viability ([2]; first compound 31.62 µM)	relative viability ([2]; first compound 100 µM)	relative viability ([3]; first compound 1 µM)	relative viability ([3]; first compound 3.162 µM)	relative viability ([3]; first compound 10 µM)	relative viability ([3]; first compound 31.62 µM)	relative viability ([3]; first compound 100 µM)	relative viability ([4]; first compound 0.005 µM)	relative viability ([4]; first compound 0.01581 µM)	relative viability ([4]; first compound 0.05 µM)	relative viability ([4]; first compound 0.1581 µM)	relative viability ([4]; first compound 0.5 µM)	relative viability ([2]; first compound 1 µM)
NCI-H1793	0.382	0.374	0.469	0.408	0.447	0.339	0.306	0.33	0.329	0.395	0.282	0.382	0.339	0.339	0.148	0.23	0.16	0.187	0.169	
HCC-78	0.955	0.683	0.518	0.615	0.986	0.727	0.664	0.645	0.69	0.752	0.768	0.623		0.783						0.433
NCI-H322M	0.577	0.458	0.48	0.467	0.486	0.728	0.869	0.713	0.728	1.17	1.35	1.27	1.22	1.33	1.06	0.845	0.833	0.796	1.07	0.825
COR-L23	0.693	0.623	0.785	0.527	0.656	0.46	0.426		0.509	1.09	1.09	0.974		1.19	0.667	0.614	0.744	0.631	0.749	0.465
201T	0.715	0.682	0.711	0.713	0.732	0.385	0.383	0.441	0.457	1.18	1.19	1.15	1.04	1.05	1.04	1.04	1.09	0.989	1.04	0.401
NCI-H2347	0.257	0.292	0.427	0.279	0.318	0.471	0.394	0.416	0.543	0.695	0.87	0.786	0.551	0.814	0.299	0.432	0.948	0.323	0.505	0.452
LCLC-97TM1	0.18	0.212	0.184	0.202	0.187	0.479	0.459	0.435	0.475		0.548	0.513		0.425	0.671	0.826	0.663	0.672	0.722	0.46
NCI-H2126	0.536	0.612	0.578	0.603	0.545	0.498	0.499	0.464	0.427	0.787	0.8	0.73	0.738	0.771	0.82	0.921	0.963	0.876	0.912	0.475
NCI-H1944	0.562	0.388	0.451	0.39	0.434	0.209	0.191	0.166	0.22	1.11	1.04	0.946		1.02	0.755	0.726	0.717	0.738	0.769	0.165
HCC-15	0.403	0.417	0.378	0.372	0.383	0.449	0.435	0.249	0.279	0.681	0.697	0.524	0.441	0.525	0.306	0.325	0.307	0.301	0.338	0.487
NCI-H2405	0.635	0.56	0.513	0.594	0.576	0.504	0.481	0.463	0.479		0.81	0.813	0.635	0.689	0.863	0.809	0.839	0.779	0.866	0.371
COR-L 105	0.478	0.414	0.446	0.452	0.466	0.484	0.55	0.436	0.403	0.65	0.663	0.722	0.63	0.626	0.628	0.922	0.669	0.64	0.81	0.525
ABC-1						0.218	0.227	0.255	0.227						0.777	0.727	0.444		0.552	0.251
HCC-366	0.415	0.417	0.391	0.359	0.333	0.658	0.618		0.533	1.12	1.11	0.886		0.925						0.662
NCI-H1623						0.619	0.556	0.465	0.561						0.519	0.602	0.444	0.538	0.481	0.556
